Each block holds one compound with its values, some of them ahead of it.
Key:
hERG channel = target: T1, hERG channel (Homo sapiens, UniProt Q12809); test: hERG fluorescence polarization Predictor Assay; type: binding; parameters: dose or concentration left out as unconfirmed
T1 construct: purchased Invitrogen (Carlsbad, Calif.)
Excerpt: Inhibition of the hERG channel is undesirable. Checking for hERG blockage is an integral step in the drug discovery cycle. The presently disclosed method is well-suited for high-throughput measurements based on fluorescence polarization (FP) as implemented in the Predictor Assay by Invitrogen (Carlsbad, Calif.). This assay is based on the principle that a fluorescent tracer upon binding to the hERG channel will induce an increase in the FP signal that will diminish when an inhibitor displaces the interaction between the tracer and the hERG channel.
FP measurements for IPR-1 and IPR-69 were performed using an EnVision (PerkinElmer) plate reader at an excitation of 540 nm and emission at 573 nm. […] At the highest concentration of 25 μM, which is near its biological activity in tumor cells, 60% blockage is detected.

phospho-p44/42 MAPK = test: Immunoblot of MAPK phosphorylation in MDA-MB-231 cells; type: cell-based, human; conditions: 100 μM, 30 minutes
Experimental: Immunoblots. MDA-MB-231 cells treated with 100 μM of compound(s)/1% DMSO for 30 min. Harvested cell lysates in RIPA buffer supplemented with protease inhibitors and phosphatase inhibitors. Under non-reducing condition equal amounts of protein were loaded per lane and separated in 4-12% NuPAGE gel (Invitrogen) at 200 V for 60 minutes, then transferred to Nitrocellulose membrane at 30 V for one hour using XCell II blot module. […] Secondary antibody: goat anti-rabbit IgG HRP 1:3000 in 5% non-fat milk-TBST at room for 1 hour. The protein bands were visualized using Immobilon Western Chemiluminescent HRP Substrate (WBKLS0100, Millipore, Billerica, Mass.). Fibronectin (Sigma, F2006) […] coated in 6-well plates overnight. MDA-MB-231serum-starved for 4 hours and then seeded in FN coated 6-well plates and treated with 5,10, 20 and 40 μM compound(s)/1% DMSO for 30 min, cells were lysated in RIPA buffer supplemented with protease inhibitors and phosphatase inhibitors. Then IB with phospho-p44/42 MAPK (Thr202/Tyr204), p44/42 MAPK; phospho-FAK (Tyr397), FAK; phospho-Src family (Tyr416), Src, respectively.
A concentration-dependent study was subsequently carried out for IPR-1 (FIG. 6B). […] The effect of the compound also was studied in two other signaling pathways including FAK and Src. FAK is constitutively associated with β-integrin subunits of integrin receptors.

[1] = test system: human umbilical vein endothelial cells (HUVEC); test: Matrigel-based tube formation (angiogenesis) assay; type: cell-based; conditions: HUVEC in Matrigel
MDA-MB-231 cells = test: Invasion assay (Boyden chamber, Matrigel); type: cell-based, human; conditions: Homo sapiens
Experimental: Invasion and Migration Assays. These assays were performed using BD BioCoat Matrigel Invasion Chamber (Cat. 354480, BD Biosciences, Bedford, Mass.). The undersurface of the inserts was coated with 30 μg/mL of fibronectin (Sigma, F2006) in PBS at 4° C. overnight. The inserts were washed with PBS once. Then, 0.5 mL of serum-free medium was separately added to the upper and lower chambers to equilibrate the Matrigel invasion chambers at 37° C., 5% CO2 for 2 hours. After starvated with serumfree DMEM or 4 hours, subconfluent MDA-MB-231 cells were trypsinized and resuspended in 0.1% FBS DMEM. 5×10^4 cells in 500 μL of 0.1% FBS DMEM containing various compounds or 1.0% DMSO (as control) were added to the upper chambers. 500 μL of 10% FBS DMEM containing the same concentration of the same compound or DMSO were added to the lower chambers. We incubated the invasion chambers for 3 hours at 37° C., 5% CO2. Non-invaded cells were removed from the upper chamber with a cotton swab. The invaded cells were fixed with 100% methanol and then stained with Hematoxylin Stain Harris Modified Method (Fisher, SH30-500D). The filters were washed with water 3 times. Filters were air dried and the invaded cells were counted in ten randomly selected microscopic fields (×200 magnification). The experiment was performed in triplicate per group and shown by mean±SE.
Whether the two active compounds affected invasion, adhesion and migration in cell culture in a concentration-dependent study was tested (FIGS. 2A, 2B). For invasion, the Transwell (or Boyden) chamber assay was used.^28 The assay uses a chamber with two compartments that are separated by a microporous membrane known as Matrigel consisting of components of the ECM such as collagen, laminin and fibronectin.^28
Invasive tumor cells degrade the Matrigel and migrate through the membrane to the lower compartment. […] FIGS. 2A and 2B show the effect of representative presently disclosed compounds on MDA-MB-231 metastasis. Percent inhibition of invasion, migration, and adhesion of MDA-MB-231 by compounds that bind to uPAR.

T1 sequence (Q12809 whole entry): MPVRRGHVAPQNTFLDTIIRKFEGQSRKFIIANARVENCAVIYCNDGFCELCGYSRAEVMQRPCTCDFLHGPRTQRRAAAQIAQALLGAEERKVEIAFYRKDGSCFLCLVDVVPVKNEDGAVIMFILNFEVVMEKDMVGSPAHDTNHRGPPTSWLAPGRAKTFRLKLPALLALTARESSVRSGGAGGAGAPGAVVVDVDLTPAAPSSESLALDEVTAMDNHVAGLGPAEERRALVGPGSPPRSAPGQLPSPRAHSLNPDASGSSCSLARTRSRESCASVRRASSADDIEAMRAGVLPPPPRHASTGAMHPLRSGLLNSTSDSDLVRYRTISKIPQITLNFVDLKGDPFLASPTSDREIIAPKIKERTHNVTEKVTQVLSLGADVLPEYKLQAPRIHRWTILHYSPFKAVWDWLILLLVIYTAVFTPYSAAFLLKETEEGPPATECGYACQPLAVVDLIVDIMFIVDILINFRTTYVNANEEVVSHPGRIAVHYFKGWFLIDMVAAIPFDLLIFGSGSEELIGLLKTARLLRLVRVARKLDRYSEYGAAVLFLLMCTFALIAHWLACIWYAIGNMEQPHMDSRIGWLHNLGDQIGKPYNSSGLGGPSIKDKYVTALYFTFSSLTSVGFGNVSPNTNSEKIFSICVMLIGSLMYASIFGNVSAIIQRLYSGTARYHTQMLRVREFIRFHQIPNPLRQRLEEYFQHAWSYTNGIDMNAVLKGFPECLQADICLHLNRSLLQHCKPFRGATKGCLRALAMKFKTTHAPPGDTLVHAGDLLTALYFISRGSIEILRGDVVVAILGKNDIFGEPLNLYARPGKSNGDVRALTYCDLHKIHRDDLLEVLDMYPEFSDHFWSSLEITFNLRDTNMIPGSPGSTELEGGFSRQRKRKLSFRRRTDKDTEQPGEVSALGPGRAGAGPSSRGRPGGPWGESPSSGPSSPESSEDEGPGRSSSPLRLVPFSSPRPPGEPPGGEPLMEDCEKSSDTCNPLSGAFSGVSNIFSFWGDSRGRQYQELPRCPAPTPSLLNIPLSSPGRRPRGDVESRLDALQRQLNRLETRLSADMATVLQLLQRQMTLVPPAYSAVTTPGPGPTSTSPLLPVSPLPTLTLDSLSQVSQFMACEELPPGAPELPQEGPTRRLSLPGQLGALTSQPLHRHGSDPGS

IC50 (MDA-MB-231 cells): 30 µM
Compound: CN(C)c1ccc(CNCCC(Cc2ccccc2)c2ccc3c(c2)OCO3)cc1 (racemic) [IPR-9, 4-(((3-(benzo[d][1,3]dioxol-5-yl)-4-phenylbutyl)amino)methyl)-N,Ndimethylaniline]
hERG channel blockage (hERG channel; 1, 10 and […] μM): even greater hERG K^+ channel blockage than the well-known channel blocker E-4031
effect on MAPK phosphorylation (phospho-p44/42 MAPK): significant impairment
IC50 [1]: 3 µM

Compound: Cc1cc(C)cc(NC(=O)c2cnn(-c3ccc(C(C)C)cc3)c2C2CCNCC2)c1 [IPR-69, N-(3,5-dimethylphenyl)-1-(4-isopropylphenyl)-5-(piperidin-4-yl)-1H-pyrazole-4-carboxamide]
hERG blockage (hERG channel; […] μM): 60%
effect on MAPK phosphorylation (phospho-p44/42 MAPK): abrogated phosphorylation, but the effects were weaker than IPR-9
IC50 [1]: 3 µM
IC50 (MDA-MB-231 cells): 30 µM

— US9745288B2, “Compounds and methods for treating cancer by inhibiting the urokinase receptor” (Indiana University Research and Technology Corporation, priority 2011, dated 2017)
